Experimental data reported in patent US11173145B2, “Compounds useful as inhibitors of indoleamine 2,3-dioxygenase and/or tryptophan dioxygenase” (Board of Regents, The University of Texas System, priority 2017, dated 2021).
pIC50: −log10 of the molar value.

Key:
mouse IDO1 = molecular target: T1, mouse IDO1 (Mus musculus, UniProt P28776); experiment: Mouse IDO1 cell-based assay (PANC02 cells, mouse IFNgamma-induced, N-formylkynurenine/L-tryptophan by RFMS); conditions: 30 ng/mL mouse IFNgamma, 48 hours
T1 construct: The murine PANC02 pancreatic ductal adenocarcinoma cell line was routinely maintained in DMEM media; endogenous in cells; host or cells: PANC02 murine pancreatic ductal adenocarcinoma cells, induced with mouse IFNgamma
T1 sequence (P28776 whole entry): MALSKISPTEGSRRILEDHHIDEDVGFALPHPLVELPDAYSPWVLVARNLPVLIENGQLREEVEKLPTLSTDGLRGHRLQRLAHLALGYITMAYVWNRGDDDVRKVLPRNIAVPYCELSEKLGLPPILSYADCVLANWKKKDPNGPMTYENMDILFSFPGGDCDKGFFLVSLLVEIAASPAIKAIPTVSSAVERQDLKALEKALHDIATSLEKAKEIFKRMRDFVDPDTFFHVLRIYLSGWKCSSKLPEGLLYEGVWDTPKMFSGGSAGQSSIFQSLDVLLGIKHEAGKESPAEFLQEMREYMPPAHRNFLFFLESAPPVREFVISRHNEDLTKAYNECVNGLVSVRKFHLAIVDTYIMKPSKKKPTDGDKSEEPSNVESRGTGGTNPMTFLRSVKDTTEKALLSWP
Protocol: The murine PANC02 pancreatic ductal adenocarcinoma cell line was routinely maintained in DMEM media containing 10% FBS. Cells (3,000/well) were seeded onto a 384 well plate in 50 μl of media and incubated at 37° C., 5% CO2 overnight. Cell media was aspirated, fresh media containing 30 ng/mL mouse IFNgamma (Gibco Life Technologies, cat #PMC4031) was added, and cells were incubated in absence or presence of various concentrations of compounds (final 0.5% DMSO) for 48 hours at 37° C., 5% CO2. Aliquots of the cell conditioned media was removed from the cell plate, and mixed with equal volume of 200 mM ZnSO4 to precipitate media containing protein. Two volumes of acetonitrile were added by mixing, and samples were then centrifuged at 2250G for 20 minutes at 4° C. Aliquots of the supernatant were diluted 1:10 in 0.1% formic acid containing 3 μM of deuterated Tryptophan as an internal standard.
Samples were analyzed via RFMS to quantify N-Formyl Kynurenine (AUC) and L-tryptophan (AUC). A C18 cartridge was used with mobile phases of 0.1% Formic Acid and 80% ACN/0.1% Formic Acid under isocratic conditions. Dose-response curves were analyzed using IC50 regression curve fitting (GeneData Screener). Curves were plotted as percent of control and normalized by high controls without inhibitor (100%), and low controls (0%) containing 1 μM of epacadostat. Cell viability was also assessed using the Cell Titer Glo Kit (Promega) following manufacture recommendation.

IDO1 = molecular target: T2, IDO1 (Homo sapiens, UniProt P14902); experiment: IDO1 cell-based assay (HeLa cells, IFNgamma-induced, N-formylkynurenine/L-tryptophan by RFMS); conditions: 10 ng/mL IFNgamma, 24 hours
T2 construct: endogenous in cells; host or cells: HeLa cells (ATCC), IFNgamma-induced
T2 sequence (P14902 whole entry): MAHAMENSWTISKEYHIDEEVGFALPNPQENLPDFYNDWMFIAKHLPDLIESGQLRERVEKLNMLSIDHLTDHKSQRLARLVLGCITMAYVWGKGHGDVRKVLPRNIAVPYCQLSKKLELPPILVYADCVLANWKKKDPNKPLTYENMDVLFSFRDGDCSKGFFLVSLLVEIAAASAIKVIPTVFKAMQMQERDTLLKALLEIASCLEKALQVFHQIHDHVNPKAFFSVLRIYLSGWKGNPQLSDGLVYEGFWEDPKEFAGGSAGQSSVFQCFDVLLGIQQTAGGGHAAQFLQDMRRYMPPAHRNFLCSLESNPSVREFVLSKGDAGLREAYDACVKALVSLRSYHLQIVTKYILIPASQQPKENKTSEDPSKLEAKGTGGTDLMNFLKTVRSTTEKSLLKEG
Summary of the method: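 HeLa cells stimulated with 10 ng/mL IFNgamma and exposed to compound (0.5% DMSO final) for 24 h at 37 °C. Conditioned media deproteinized, then N-formylkynurenine and L-tryptophan quantified by RapidFire MS with deuterated tryptophan internal standard; IC50 by curve fitting. Viability checked by CellTiter-Glo.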

Compound	pIC50 (mouse IDO1)	pIC50 (IDO1)
CCOCc1cn([C@H]2C[C@@H]3[C@H](C2)[C@H]3C(CC)NC(=O)c2ccc(Cl)cc2)nn1 (stereo partly drawn) [Compound 216, 4-chloro-N-(1-((1R,3r,5S,6r)-3-(4-(ethoxymethyl)-1H-1,2,3-triazol-1-yl)bicyclo[3.1.0]hexan-6-yl)propyl)benzamide]	> 6.30	> 6.70
CCc1cnnn1[C@@H]1C[C@@H]2[C@H](C1)[C@H]2C(CC)NC(=O)c1ccc(Cl)cc1 (stereo partly drawn) [Compound 165, 4-chloro-N-(1-((1R,3s,5S,6r)-3-(5-ethyl-1H-1,2,3-triazol-1-yl)bicyclo[3.1.0]hexan-6-yl)propyl)benzamide]	> 6.30	> 6.70
CCC(NC(=O)c1ccc(Cl)cc1)[C@H]1[C@@H]2C[C@@H](n3ncc4cc(F)ccc43)C[C@@H]21 (stereo partly drawn) [Compound 208, 4-chloro-N-(1-((1R,3s,5S,6r)-3-(5-fluoro-1H-indazol-1-yl)bicyclo[3.1.0]hexan-6-yl)propyl)benzamide]	> 6.30	> 6.70
CCC(NC(=O)c1ccc(Cl)cc1)[C@H]1[C@@H]2C[C@@H](n3ccnc3C)C[C@@H]21 (stereo partly drawn) [Compound 201, 4-chloro-N-(1-((1R,3s,5S,6r)-3-(2-methyl-1H-imidazol-1-yl)bicyclo[3.1.0]hexan-6-yl)propyl)benzamide]	5.30 to 5.70	> 6.70
CCC(NC(=O)c1ccc(Cl)cc1)[C@H]1[C@@H]2C[C@@H](N3Cc4ccccc4C3=O)C[C@@H]21 (stereo partly drawn) [Compound 175, 4-chloro-N-(1-((1R,3s,5S,6r)-3-(1-oxoisoindolin-2-yl)bicyclo[3.1.0]hexan-6-yl)propyl)benzamide]	5.70 to 6.30	> 6.70
CCC(NC(=O)c1ccc(Cl)cc1)[C@H]1[C@@H]2C[C@@H](NC(=O)c3ccc(F)cn3)C[C@@H]21 (stereo partly drawn) [Compound 144, N-((1R,3s,5S,6r)-6-(1-(4-chlorobenzamido)propyl)bicyclo[3.1.0]hexan-3-yl)-5-fluoropicolinamide]	5.70 to 6.30	> 6.70
COCc1cn([C@@H]2C[C@@H]3[C@H](C2)[C@H]3C(C)NC(=O)c2ccc(C#N)cc2)nn1 (stereo partly drawn) [Compound 242, 4-cyano-N-(1-((1R,3s,5S,6r)-3-(4-(methoxymethyl)-1H-1,2,3-triazol-1-yl)bicyclo[3.1.0]hexan-6-yl)ethyl)benzamide]	< 5.30	5.70 to 6.70
CCOC(=O)C(N[C@@H]1C[C@@H]2[C@H](C1)[C@H]2C(CC)NC(=O)c1ccc(Cl)cc1)c1ccccc1 (stereo partly drawn) [Compound 190, ethyl 2-(((1R,3s,5S,6r)-6-(1-(4-chlorobenzamido)propyl)bicyclo[3.1.0]hexan-3-yl)amino)-2-phenylacetate]	< 5.30	5.70 to 6.70
CCC(NC(=O)c1ccc(Cl)cc1)[C@H]1[C@@H]2C[C@@H](n3ncnc3C3CC3)C[C@@H]21 (stereo partly drawn) [Compound 258, 4-chloro-N-(1-((1R,3s,5S,6r)-3-(5-cyclopropyl-1H-1,2,4-triazol-1-yl)bicyclo[3.1.0]hexan-6-yl)propyl)benzamide]	5.30 to 5.70	5.70 to 6.70
CCC(NC(=O)c1ccc(Cl)cc1)[C@H]1[C@@H]2C[C@@H](n3ncc4ccc(F)cc43)C[C@@H]21 (stereo partly drawn) [Compound 162, 4-chloro-N-(1-((1R,3s,5S,6r)-3-(6-fluoro-1H-indazol-1-yl)bicyclo[3.1.0]hexan-6-yl)propyl)benzamide]	5.70 to 6.30	> 6.70
CCC(NC(=O)c1ccc(Cl)cc1)[C@H]1[C@@H]2C[C@@H](n3cc(N(C)C)nn3)C[C@@H]21 (stereo partly drawn) [Compound 238, 4-chloro-N-(1-((1R,3s,5S,6r)-3-(4-(dimethylamino)-1H-1,2,3-triazol-1-yl)bicyclo[3.1.0]hexan-6-yl)propyl)benzamide]	> 6.30	> 6.70
CCC(NC(=O)c1ccc(Cl)cc1)[C@H]1[C@@H]2C[C@@H](NC(=O)c3cn[nH]c3)C[C@@H]21 (stereo partly drawn) [Compound 177, N-((1R,3s,5S,6r)-6-(1-(4-chlorobenzamido)propyl)bicyclo[3.1.0]hexan-3-yl)-1H-pyrazole-4-carboxamide]	< 5.30	5.70 to 6.70
CCC(NC(=O)c1ccc(Cl)cc1)[C@H]1[C@@H]2C[C@@H](n3c(=O)[nH]c4cc(F)ccc43)C[C@@H]21 (stereo partly drawn) [Compound 192, 4-chloro-N-(1-((1R,3s,5S,6r)-3-(5-fluoro-2-oxo-2,3-dihydro-1H-benzo[d]imidazol-1-yl)bicyclo[3.1.0]hexan-6-yl)propyl)benzamide]	5.70 to 6.30	5.70 to 6.70
CCC(NC(=O)c1ccc(Cl)cc1)[C@H]1[C@@H]2C[C@@H](n3c(=O)n(C)c4ccccc43)C[C@@H]21 (stereo partly drawn) [Compound 181, 4-chloro-N-(1-((1R,3s,5S,6r)-3-(3-methyl-2-oxo-2,3-dihydro-1H-benzo[d]imidazol-1-yl)bicyclo[3.1.0]hexan-6-yl)propyl)benzamide]	> 6.30	> 6.70
CCC(NC(=O)c1ccc(Cl)cc1)[C@H]1[C@@H]2C[C@@H](n3cnc(C4CC4)c3)C[C@@H]21 (stereo partly drawn) [Compound 261, 4-chloro-N-(1-((1R,3s, 5S, 6r)-3-(4-cyclopropyl-1H-imidazol-1-yl)bicyclo[3.1.0]hexan-6-yl)propyl)benzamide]	5.70 to 6.30	> 6.70
O=C(NC(CO)[C@H]1[C@@H]2C[C@@H](n3cc(C4CC4)nn3)C[C@@H]21)c1ccc(Cl)cc1 (stereo partly drawn) [Compound 168, 4-chloro-N-(1-((1R,3s,5S,6r)-3-(4-cyclopropyl-1H-1,2,3-triazol-1-yl)bicyclo[3.1.0]hexan-6-yl)-2-hydroxyethyl)benzamide]	< 5.30	5.30 to 5.70
O=C(Nc1ccc(Cl)cc1)[C@H]1[C@@H]2CN(c3ncnc4ccc(F)cc34)C[C@@H]21 [Compound 252, (1R,5S,6r)-N-(4-chlorophenyl)-3-(6-fluoroquinazolin-4-yl)-3-azabicyclo[3.1.0]hexane-6-carboxamide]	5.30 to 5.70	< 5.30
CCC(NC(=O)c1ccc(Cl)cc1)[C@H]1[C@@H]2C[C@@H](NC(=O)c3cccnc3)C[C@@H]21 (stereo partly drawn) [Compound 145, N-((1R,3s,5S,6r)-6-(1-(4-chlorobenzamido)propyl)bicyclo[3.1.0]hexan-3-yl)nicotinamide]	< 5.30	> 6.70
CCC(NC(=O)c1ccc(Cl)cc1)[C@H]1[C@@H]2C[C@@H](n3cc4cccc(F)c4n3)C[C@@H]21 (stereo partly drawn) [Compound 205, 4-chloro-N-(1-((1R,3s,5S,6r)-3-(7-fluoro-2H-indazol-2-yl)bicyclo[3.1.0]hexan-6-yl)propyl)benzamide]	> 6.30	> 6.70
CCC(NC(=O)c1ccc(Cl)cc1)[C@H]1[C@@H]2C[C@@H](NC(=O)c3nccc(C(F)(F)F)c3Cl)C[C@@H]21 (stereo partly drawn) [Compound 158, 3-chloro-N-((1R,3s,5S,6r)-6-(1-(4-chlorobenzamido)propyl)bicyclo[3.1.0]hexan-3-yl)-4-(trifluoromethyl)picolinamide]	5.70 to 6.30	> 6.70
CCC(NC(=O)c1ccc(Cl)cc1)[C@H]1[C@@H]2C[C@@H](NC(=O)c3cncc(Cl)n3)C[C@@H]21 (stereo partly drawn) [Compound 150, 6-chloro-N-((1R,3s,5S,6r)-6-(1-(4-chlorobenzamido)propyl)bicyclo[3.1.0]hexan-3-yl)pyrazine-2-carboxamide]	5.30 to 5.70	> 6.70
C[C@H](NC(=O)c1ccc(C#N)cc1)[C@H]1[C@@H]2C[C@@H](Oc3ncnc4ccc(F)cc34)C[C@@H]21 [Compound 130, 4-cyano-N-((R)-1-((1R,3S,5S,6r)-3-((6-fluoroquinazolin-4-yl)oxy)bicyclo[3.1.0]hexan-6-yl)ethyl)benzamide]	> 6.30	> 6.70
O=C(Nc1ccc(Cl)cc1)[C@@H]1[C@@H]2CN(c3ncnc4ccc(F)cc34)C[C@@H]21 [Compound 250, (1R,5S,6s)-N-(4-chlorophenyl)-3-(6-fluoroquinazolin-4-yl)-3-azabicyclo[3.1.0]hexane-6-carboxamide]	< 5.30	< 5.30
CCC(NC(=O)c1ccc(Cl)cc1)[C@H]1[C@@H]2C[C@@H](n3nnc4ccc(Br)cc43)C[C@@H]21 (stereo partly drawn) [Compound 178, N-(1-((1R,3s,5S,6r)-3-(6-bromo-1H-benzo[d][1,2,3]triazol-1-yl)bicyclo[3.1.0]hexan-6-yl)propyl)-4-chlorobenzamide]	> 6.30	> 6.70
CCC(NC(=O)c1ccc(Cl)cc1)[C@H]1[C@@H]2C[C@@H](n3cc(NC(C)=O)nn3)C[C@@H]21 (stereo partly drawn) [Compound 256, N-(1-((1R,3s,5S,6r)-3-(4-acetamido-1H-1,2,3-triazol-1-yl)bicyclo[3.1.0]hexan-6-yl)propyl)-4-chlorobenzamide]	< 5.30	< 5.30
